Source: patent US10301267B2, “Compounds” (AstraZeneca AB, priority 2006, dated 2019)
Like-named read-outs stand apart in the source and are kept apart here.

Experiments:
Format in all cases: biochemical
FGFR1 active kinase [1] = target: T1, FGFR1 active kinase (Homo sapiens, UniProt P11362); experiment: FGFR Kinase assay - Caliper; for FGFR Kinase assay - Caliper, IC50: 408 µM ATP
Description: FGFR Kinase Assay—Caliper
To determine inhibition of FGFR activity, kinase assays were conducted using Caliper technology.
Kinase activity assays were performed in Greiner 384-well low volume plates, with a total reaction volume of 12 ul per well. Final concentration of FGFR1 active kinase in each reaction well was 7.2 nM. The substrate for each assay was a custom peptide with fluorescent tag (13 amino acids in length, […] with the fluorescene tag on the first K).
Compounds were serially diluted in 5% (v/v) DMSO, before being added to assay plates. The Enzyme (at 7.2 nM [final]) and Substrate (at 3.6 uM [final]) were added separately to the compound plates, in reaction buffer [comprising: 50 mM MOPS (Sigma, Catalogue No. M1254)—pH 6.5, 0.004% Triton (Sigma, Catalogue No. X-100), 2.4 mM DTT, 12 mM MgCl2, 408 uM ATP] resulting in a final DMSO concentration in the reaction mix of 0.8%.
Assay plates were incubated at room temperature for 1.5 h, before the reaction was stopped with the addition of buffer [comprising: 100 mM HEPES—pH7.5, 0.033% Brij-35 (Sigma Catalogue No. B4184), 0.22% Caliper Coating Reagent #3 (Caliper Life Sciences Catalogue No. 760050), 88 mM EDTA, 5% DMSO]. Stopped assay plates were then read using the Caliper LabChip® LC3000 (which uses microfludics to measure a shift in mobility between fluorescent labelled peptide and the FGFR1 kinase—phosphorylated form of this peptide).
In the assay, compounds were tested at a range of concentrations.
(§1) Percentage inhibition at 1 uM, as expressed herein, is a calculated value based on the curve fit that was generated experimentally. From the fitted curve plot, the effect of compound at a concentration of 1 uM was calculated as a percentage inhibition. The IC50 is the concentration of compound, which inhibits FGFR1 kinase activity by 50% in the context of this assay.

[2] = target: T2, His6-tagged FGFR kinase domain (Homo sapiens, UniProt P11362, C488A/C584S); experiment: FGFR Kinase assay - Elisa
T2 construct: FGFR kinase domain (amino acids 458-765, C488A, C584S) N-terminally fused to a His6-tag and TEV cleavage site; His6-tag plus linker and TEV cleavage site (printed as X1); made in house
T2 sequence (P11362 458-765 C488A/C584S): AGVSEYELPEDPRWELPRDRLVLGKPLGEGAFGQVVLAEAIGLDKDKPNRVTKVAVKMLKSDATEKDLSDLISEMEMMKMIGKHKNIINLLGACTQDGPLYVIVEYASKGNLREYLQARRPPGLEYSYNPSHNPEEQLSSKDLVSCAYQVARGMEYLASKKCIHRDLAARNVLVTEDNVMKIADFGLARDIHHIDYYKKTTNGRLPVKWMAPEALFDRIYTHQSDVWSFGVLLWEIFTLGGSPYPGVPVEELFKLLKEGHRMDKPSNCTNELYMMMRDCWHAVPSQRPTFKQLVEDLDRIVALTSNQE
Description: To determine inhibition of FGFR activity, kinase assays were conducted using ELISA (Enzyme-Linked Immunosorbent Assay) technology.
Kinase activity assays were performed in 384-well polypropylene plates (Matrix, Catalogue No. 4311. Matrix are part of Thermo Fisher Scientific, 22 Friars Drive, Hudson, N.H. 03051, USA) with a total volume of 40 μl in each well. Each well was coated with 2 μg of polyEAY substrate (Sigma, Catalogue No. P3899) at 4° C. overnight. The plates were then washed once with 100 μl PBS and once with 100 μl 50 mM HEPES (pH 7.4) prior to the addition of the kinase assay reagents. Reactions contained His6-tagged FGFR kinase domain (FGFR kinase domain (amino acids 458-765, C488A, C584S) N-terminally fused to a His6-tag and TEV cleavage site encoded by the following sequence; [[…]]. The final alanine denotes the start of the FGFR protein sequence. The resultant protein was expressed and purified based on Mohammadi et al, Cell Vol 86, 577-587 (1996). Each kinase reaction contained 0.1 ng His6-tagged FGFR kinase domain, 50 mM HEPES (pH 7.4), 0.1 mM Na3VO4, 0.1 mM DTT, 0.05% (v/v) Triton X100, 20 mM MgCl2, 160 μM ATP. Various concentrations of test compounds were each added in 5% (v/v) DMSO to yield a final assay DMSO concentration of 1.25% (v/v). The kinase reactions were incubated at room temperature for 45 minutes and stopped by washing the plate three times with 100 μl PBS plus 0.05% Tween. 40 μl of a one in 10000 dilution of 4G10-HRP antibody (Upstate Biotechnology, UBI 16-105. Upstate are part of Millipore Corporation, 290 Concord Road, Billerca Mass. 01821 USA) made up in 0.5% (w/v) BSA/PBS was then added to each well and the plates incubated at room temperature for one hour. Following this, the plates were then washed repeatedly with 100 μl PBS plus 0.05% Tween to remove all traces of the antibody solution. 40 μl of 50 μg/ml 3,3′,5,5′-Tetramethylbenzidine (Sigma, Catalogue No. T2885), 0.05M phosphate-citrate buffer, containing 0.03% sodium perborate was added to each well and the plates incubated at room temperature for twelve minutes. The colour reaction was stopped by the addition of 20 μl 2M H2SO4 and the plates read at 450 nm on a Spectrafluor Plus (Tecan Trading AG, Switzerland). In the assay, compounds were tested at a range of concentrations.
as §1, with “IC50 value” for “IC50”, “test compound that” for “compound, which”, “50% of FGFR” for “FGFR1”, “activity.” for “activity by 50% in the context of this assay.”

FGFR1 active kinase [3] = target: T1, FGFR1 active kinase; experiment: FGFR Kinase assay - Caliper Echo Dosing; conditions: FGFR1 7.2 nM, 408 uM ATP, acoustic dosing; geometric mean of n
[4] = FGFR1 […], 408 uM ATP, mean of n as printed, read-out: FGFR Kinase assay - Caliper, IC50
[5] = FGFR inhibition test, Caliper, read-out: Activity class (FGFR Kinase assay - Caliper)
[6] = FGFR inhibition test, Elisa, read-out: Activity class (FGFR Kinase assay - Elisa)

T1 sequence (P11362 22-822): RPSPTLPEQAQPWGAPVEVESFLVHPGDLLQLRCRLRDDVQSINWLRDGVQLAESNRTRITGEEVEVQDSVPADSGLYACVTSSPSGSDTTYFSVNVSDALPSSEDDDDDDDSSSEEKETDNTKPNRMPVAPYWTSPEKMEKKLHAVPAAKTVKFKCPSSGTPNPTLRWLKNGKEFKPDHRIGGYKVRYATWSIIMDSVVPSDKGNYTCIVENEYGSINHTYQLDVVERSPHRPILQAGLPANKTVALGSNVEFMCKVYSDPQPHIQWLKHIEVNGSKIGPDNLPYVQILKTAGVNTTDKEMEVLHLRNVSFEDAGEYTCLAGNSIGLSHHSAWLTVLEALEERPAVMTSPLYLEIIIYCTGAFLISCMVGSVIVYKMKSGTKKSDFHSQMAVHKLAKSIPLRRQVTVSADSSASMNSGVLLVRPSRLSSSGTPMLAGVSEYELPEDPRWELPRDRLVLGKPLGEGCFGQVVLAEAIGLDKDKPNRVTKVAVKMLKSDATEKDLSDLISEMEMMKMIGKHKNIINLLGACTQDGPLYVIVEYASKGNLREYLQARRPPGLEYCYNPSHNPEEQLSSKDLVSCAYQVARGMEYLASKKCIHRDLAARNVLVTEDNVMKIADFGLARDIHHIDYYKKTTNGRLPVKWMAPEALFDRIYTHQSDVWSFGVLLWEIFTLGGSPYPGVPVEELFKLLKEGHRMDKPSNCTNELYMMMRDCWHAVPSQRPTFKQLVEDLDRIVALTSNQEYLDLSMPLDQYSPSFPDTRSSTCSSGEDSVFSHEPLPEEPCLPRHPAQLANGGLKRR

SMILES | IC50 (FGFR1 active kinase [1]; [4]) | IC50 (FGFR1 active kinase [1]; [5]) | IC50 [2, 6] | IC50 ([2]; polyEAY substrate, 160 μM ATP, read-out: FGFR Kinase assay - Elisa, IC50) | IC50 (FGFR1 active kinase [1]; footnote example, read-out: FGFR Kinase assay - Caliper, value in table footnote) | IC50 ([2]; footnote example, read-out: FGFR Kinase assay - Elisa, value in table footnote) | IC50 (FGFR1 active kinase [3])
COc1cccc(CCc2cc(NC(=O)c3ccc(C)nc3)[nH]n2)c1 [Example 13, N-[5-[2-(3-Methoxyphenyl)ethyl]-2H-pyrazol-3-yl]-6-methyl-pyridine-3-carboxamide] | 950 nM | 300 to 1000 nM | 300 to 1000 nM |  |  |  | 
COc1cccc(CCc2cc(NC(=O)c3ccc(OC)nc3)[nH]n2)c1 [Example 14, 6-Methoxy-N-[5-[2-(3-methoxyphenyl)ethyl]-2H-pyrazol-3-yl]pyridine-3-carboxamide] | 610 nM | 300 to 1000 nM | 300 to 1000 nM |  | 612 nM | 732 nM | 
COc1cccc(CCc2cc(NC(=O)c3ccc(S(C)(=O)=O)cc3)[nH]n2)c1 [Example 15, N-[5-[2-(3-Methoxyphenyl)ethyl]-2H-pyrazol-3-yl]-4-methylsulfonyl-benzamide] | 110 nM | < 300 nM | < 300 nM |  |  |  | 
COc1cccc(CCc2cc(NC(=O)c3cnc(C)cn3)[nH]n2)c1 [Example 16, N-[5-[2-(3-Methoxyphenyl)ethyl]-2H-pyrazol-3-yl]-5-methyl-pyrazine-2-carboxamide] | 750 nM | 300 to 1000 nM | 300 to 1000 nM |  |  |  | 
C#CCNc1ccc(C(=O)Nc2cc(CCc3cccc(OC)c3)n[nH]2)nc1 [Example 17, N-[5-[2-(3-Methoxyphenyl)ethyl]-2H-pyrazol-3-yl]-5-(prop-2-ynylamino)pyridine-2-carboxamide] | 660 nM | 300 to 1000 nM | 300 to 1000 nM |  |  |  | 
COc1cccc(CCc2cc(NC(=O)c3ccc(NC(C)=O)cc3)[nH]n2)c1 [Example 19, 4-Acetamido-N-[5-[2-(3-methoxyphenyl)ethyl]-2H-pyrazol-3-yl]benzamide] | 400 nM | 300 to 1000 nM | < 300 nM |  |  |  | 
CNC(=O)c1cccc(CCc2cc(NC(=O)c3ccc(N4CCN(C)CC4)cc3)[nH]n2)c1 [Example 178, N-[5-[2-[3-(methylcarbamoyl)phenyl]ethyl]-2H-pyrazol-3-yl]-4-(4-methylpiperazin-1-yl)benzamide] |  |  |  |  |  |  | 1.1 nM

More lines, now with the values ahead:

IC50 (FGFR1 active kinase [1]; [4]) | IC50 (FGFR1 active kinase [1]; [5]) | IC50 [2, 6] | IC50 ([2]; polyEAY substrate, 160 μM ATP, read-out: FGFR Kinase assay - Elisa, IC50) | IC50 (FGFR1 active kinase [1]; footnote example, read-out: FGFR Kinase assay - Caliper, value in table footnote) | IC50 ([2]; footnote example, read-out: FGFR Kinase assay - Elisa, value in table footnote) | IC50 (FGFR1 active kinase [3]) | SMILES
132 nM | < 300 nM | < 300 nM |  |  |  |  | COc1ccc(C(=O)Nc2cc(CCc3cc(OC)cc(OC)c3)n[nH]2)cc1 [Example 3, N-[5-[2-(3,5-dimethoxyphenyl)ethyl]-2H-pyrazol-3-yl]-4-methoxy-benzamide]
68 nM | < 300 nM | < 300 nM |  |  |  |  | COc1cc(CCc2cc(NC(=O)c3ccc(N4CCOCC4)cc3)[nH]n2)cc(OC)c1 [Example 4, N-[5-[2-(3,5-dimethoxyphenyl)ethyl]-2H-pyrazol-3-yl]-4-morpholin-4-yl-benzamide]
63 nM | < 300 nM | < 300 nM |  |  |  |  | COc1cc(CCc2cc(NC(=O)c3ccc(CN4CCC(F)CC4)cc3)[nH]n2)cc(OC)c1 [Example 5, N-[5-[2-(3,5-dimethoxyphenyl)ethyl]-2H-pyrazol-3-yl]-4-[(4-fluoropiperidin-1-yl)methyl]benzamide]
58 nM | < 300 nM | < 300 nM |  |  |  |  | COCCOc1cccc(CCc2cc(NC(=O)c3ccc(N4CCN(C)CC4)cc3)[nH]n2)c1 [Example 6, N-[5-[2-[3-(2-methoxyethoxy)phenyl]ethyl]-2H-pyrazol-3-yl]-4-(4-methylpiperazin-1-yl)benzamide]
 |  | < 300 nM | 60 nM |  |  |  | COc1cc(COc2cc(NC(=O)c3ccc(N4CCN(C)CC4)cc3)[nH]n2)cc(OC)c1 [Example 12, N-[5-[(3,5-dimethoxyphenyl)methoxy]-2H-pyrazol-3-yl]-4-(4-methylpiperazin-1-yl)benzamide]
46 nM | < 300 nM | < 300 nM |  |  |  |  | COc1cc(COc2cc(NC(=O)c3cnc(N4CCN(C)CC4)cn3)[nH]n2)cc(OC)c1 [Example 20, N-[5-[(3,5-Dimethoxyphenyl)methoxy]-2H-pyrazol-3-yl]-5-(4-methylpiperazin-1-yl)pyrazine-2-carboxamide]
118 nM |  |  |  |  |  | 14.9 nM | COc1cc(CCc2cc(NC(=O)c3cnc(N4CCN(C)CC4)nc3)[nH]n2)cc(OC)c1 [Example 85, N-[5-[2-(3,5-Dimethoxyphenyl)ethyl]-2H-pyrazol-3-yl]-2-(4-methylpiperazin-1-yl)pyrimidine-5-carboxamide]
156 nM |  |  |  |  |  | 0.77 nM | COc1cc(CCc2cc(NC(=O)c3ccc(N4CCN(C5CC5)CC4)cc3)n[nH]2)cc(OC)c1 [Example 88, 4-(4-Cyclopropylpiperazin-1-yl)-N-[5-[2-(3,5-dimethoxyphenyl)ethyl]-1H-pyrazol-3-yl]benzamide]
 |  |  |  |  |  | 0.68 nM | CCN1CCN(c2ccc(C(=O)Nc3cc(OCc4cc(OC)cc(OC)c4)n[nH]3)cc2)CC1 [Example 179, N-[5-[(3,5-dimethoxyphenyl)methoxy]-2H-pyrazol-3-yl]-4-(4-ethylpiperazin-1-yl)benzamide]
 |  |  |  |  |  | 1.7 nM | CCN1CCN(c2ccc(C(=O)Nc3cc(CCc4cc(OC)cc(OC)c4)n[nH]3)cc2)CC1 [Example 180, N-[5-[2-(3,5-dimethoxyphenyl)ethyl]-2H-pyrazol-3-yl]-4-(4-ethylpiperazin-1-yl)benzamide]
